Measurements from the supplement of paper PMC6045584.
± gives the standard deviation of the averaged measurements.

Experiments:
VINORELBINE = compound: CCC1=C[C@@H]2CN(C1)Cc1c([nH]c3ccccc13)[C@@](C(=O)OC)(c1cc3c(cc1OC)N(C)[C@H]1[C@@](O)(C(=O)OC)[C@H](OC(C)=O)[C@]4(CC)C=CCN5CC[C@]31[C@@H]54)C2 [VINORELBINE]; experiment: surviving fraction relative to DMSO-only wells; higher = less growth inhibition; conditions: exposure time: 5 days
In short: (§1)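 Viability values are CellTiter-Glo luminescence readings, given as surviving fraction against the median of DMSO-only wells. The readings were taken after 10 minutes at room temperature, following five days of continuous exposure to inhibitors at 0.5, 1, 5, 10, 50, 100, 500 and 1000 nM that began 24 hours after log-phase tumour cell lines were seeded at 250–500 cells per well in 384-well plates. Every line was screened three times and kept only if replicate Pearson r >0.7 and median Z' >0.3.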

METHOTREXATE = compound: CN(Cc1cnc2nc(N)nc(N)c2n1)c1ccc(C(=O)N[C@@H](CCC(=O)O)C(=O)O)cc1 [METHOTREXATE]; experiment: as above; conditions: exposure time: 5 days
In short: as §1

Test System | surviving fraction (VINORELBINE; 0.5 nM) | surviving fraction (VINORELBINE; 1 nM) | surviving fraction (VINORELBINE; 5 nM) | surviving fraction (VINORELBINE; 10 nM) | surviving fraction (VINORELBINE; 50 nM) | surviving fraction (VINORELBINE; 100 nM) | surviving fraction (VINORELBINE; 500 nM) | surviving fraction (VINORELBINE; 1000 nM) | surviving fraction (METHOTREXATE; 0.5 nM) | surviving fraction (METHOTREXATE; 1 nM) | surviving fraction (METHOTREXATE; 5 nM) | surviving fraction (METHOTREXATE; 10 nM) | surviving fraction (METHOTREXATE; 50 nM) | surviving fraction (METHOTREXATE; 100 nM) | surviving fraction (METHOTREXATE; 500 nM) | surviving fraction (METHOTREXATE; 1000 nM)
HCC1806 BREAST | 0.976 ± 0.16 | 1.02 ± 0.075 | 1.01 ± 0.077 | 0.173 ± 0.14 | 0.0363 ± 0.0095 | 0.0347 ± 0.0038 | 0.042 ± 0.001 | 0.041 ± 0.0053 | 1.13 ± 0.11 | 1.11 ± 0.098 | 0.503 ± 0.063 | 0.445 ± 0.03 | 0.263 ± 0.01 | 0.227 ± 0.017 | 0.244 ± 0.0074 | 0.254 ± 0.016
HCC1954 BREAST | 1.08 ± 0.15 | 0.9287 ± 0.0046 | 0.576 ± 0.01 | 0.311 ± 0.011 | 0.1412 ± 0.0011 | 0.13 ± 0.00071 | 0.091 ± 0.0021 | 0.144 ± 0.025 | 1.26 ± 0.04 | 1.16 ± 0.024 | 1.42 ± 0.14 | 1.3 ± 0.18 | 1.17 ± 0.11 | 0.997 ± 0.16 | 1.09 ± 0.13 | 0.849 ± 0.18
HCT15 LARGE INTESTINE | 1.1 ± 0.066 | 1.06 ± 0.043 | 1.04 ± 0.085 | 0.957 ± 0.058 | 0.99 ± 0.064 | 0.819 ± 0.093 | 0.183 ± 0.026 | 0.106 ± 0.0059 | 1.08 ± 0.046 | 1.05 ± 0.13 | 1.04 ± 0.13 | 0.749 ± 0.18 | 0.138 ± 0.014 | 0.102 ± 0.017 | 0.137 ± 0.019 | 0.134 ± 0.015
HELA CERVIX | 1.05 ± 0.054 | 1.02 ± 0.044 | 1.04 ± 0.015 | 0.778 ± 0.043 | 0.145 ± 0.0031 | 0.0838 ± 0.0042 | 0.0347 ± 0.0015 | 0.0298 ± 0.0028 | 1.06 ± 0.044 | 1.027 ± 0.0067 | 1.03 ± 0.039 | 1.02 ± 0.018 | 0.712 ± 0.085 | 0.332 ± 0.018 | 0.282 ± 0.012 | 0.288 ± 0.016
HMLE3 BREAST | 0.993 ± 0.017 | 0.965 ± 0.053 | 1.07 ± 0.044 | 0.987 ± 0.013 | 0.125 ± 0.029 | 0.053 ± 0.012 | 0.0317 ± 0.0067 | 0.0373 ± 0.005 | 0.98 ± 0.057 | 1.03 ± 0.13 | 1.07 ± 0.046 | 0.985 ± 0.037 | 0.575 ± 0.051 | 0.639 ± 0.062 | 0.522 ± 0.026 | 0.513 ± 0.037
HMT3552 BREAST | 1.05 | 1.05 | 0.59 | 0.209 | 0.104 | 0.117 | 0.253 | 0.221 | 1.07 ± 0.063 | 1 ± 0.036 | 1.04 ± 0.069 | 1.03 ± 0.051 | 0.604 ± 0.06 | 0.282 ± 0.02 | 0.182 ± 0.0061 | 0.171 ± 0.008
HOS BONE | 1.05 ± 0.05 | 1.01 ± 0.011 | 1.05 ± 0.034 | 0.967 ± 0.031 | 0.13 ± 0.012 | 0.0783 ± 0.0015 | 0.03 ± 0.0035 | 0.033 ± 0.0027 | 1.02 ± 0.036 | 0.999 ± 0.024 | 0.252 ± 0.018 | 0.223 ± 0.0095 | 0.232 ± 0.013 | 0.226 ± 0.0083 | 0.218 ± 0.01 | 0.214 ± 0.018
HOSMNG BONE | 0.938 ± 0.14 | 0.956 ± 0.1 | 0.963 ± 0.11 | 0.955 ± 0.15 | 0.694 ± 0.1 | 0.415 ± 0.028 | 0.112 ± 0.018 | 0.0593 ± 0.01 | 0.844 ± 0.14 | 0.864 ± 0.049 | 0.84 ± 0.047 | 0.248 ± 0.019 | 0.212 ± 0.016 | 0.316 ± 0.011 | 0.341 ± 0.015 | 0.353 ± 0.0087
HS57T BREAST | 1.01 ± 0.08 | 0.957 ± 0.03 | 0.682 ± 0.0066 | 0.118 ± 0.011 | 0.07 ± 0.002 | 0.0703 ± 0.013 | 0.0633 ± 0.0096 | 0.0723 ± 0.0084 | 1 ± 0.11 | 1.03 ± 0.075 | 1.03 ± 0.032 | 0.985 ± 0.12 | 0.252 ± 0.025 | 0.226 ± 0.013 | 0.205 ± 0.018 | 0.214 ± 0.0081
HS578T BREAST | 1.13 ± 0.09 | 0.976 ± 0.17 | 0.423 ± 0.021 | 0.276 ± 0.027 | 0.153 ± 0.019 | 0.138 ± 0.004 | 0.173 ± 0.011 | 0.185 ± 0.014 | 1.04 ± 0.19 | 1.17 ± 0.17 | 1.19 ± 0.2 | 1.15 ± 0.058 | 0.518 ± 0.069 | 0.438 ± 0.012 | 0.375 ± 0.011 | 0.418 ± 0.011
HSSYII SYNOVIAL | 0.891 ± 0.082 | 0.836 ± 0.032 | 0.308 ± 0.033 | 0.0998 ± 0.006 | 0.0498 ± 0.003 | 0.0455 ± 0.0052 | 0.0458 ± 0.002 | 0.0588 ± 0.0063 | 0.995 ± 0.049 | 0.996 ± 0.048 | 1 ± 0.051 | 0.969 ± 0.029 | 0.822 ± 0.035 | 0.834 ± 0.081 | 0.755 ± 0.045 | 0.78 ± 0.043
HT1080 SOFT TISSUE | 1.02 ± 0.02 | 1.02 ± 0.016 | 0.903 ± 0.018 | 0.503 ± 0.01 | 0.0517 ± 0.0055 | 0.0363 ± 0.00058 | 0.038 ± 0.002 | 0.0363 ± 0.0015 | 1.04 ± 0.021 | 1.06 ± 0.029 | 1.02 ± 0.04 | 0.493 ± 0.043 | 0.253 ± 0.023 | 0.257 ± 0.0082 | 0.259 ± 0.0081 | 0.265 ± 0.03
HU09 BONE | 1.09 ± 0.035 | 1.02 ± 0.11 | 0.981 ± 0.1 | 0.558 ± 0.071 | 0.124 ± 0.015 | 0.0583 ± 0.0064 | 0.0547 ± 0.004 | 0.0747 ± 0.0045 | 1.07 ± 0.17 | 1 ± 0.055 | 1.15 ± 0.085 | 1.06 ± 0.059 | 0.589 ± 0.031 | 0.459 ± 0.051 | 0.335 ± 0.018 | 0.337 ± 0.043
JIMT1 BREAST | 0.955 ± 0.036 | 0.9598 ± 0.0091 | 0.512 ± 0.025 | 0.304 ± 0.03 | 0.127 ± 0.011 | 0.117 ± 0.0056 | 0.113 ± 0.0063 | 0.11 ± 0.0053 | 1.02 ± 0.053 | 0.999 ± 0.026 | 0.579 ± 0.035 | 0.533 ± 0.044 | 0.305 ± 0.028 | 0.286 ± 0.029 | 0.285 ± 0.042 | 0.295 ± 0.017
JURKAT HAEMATOPOIETIC AND LYMPHOID TISSUE | 1.07 ± 0.02 | 1.066 ± 0.0099 | 0.952 ± 0.041 | 0.168 ± 0.034 | 0.0297 ± 0.00058 | 0.0247 ± 0.00058 | 0.025 | 0.0233 ± 0.00058 | 1.02 ± 0.012 | 1.02 ± 0.035 | 1.02 ± 0.03 | 0.404 ± 0.012 | 0.036 ± 0.001 | 0.0293 ± 0.0015 | 0.0293 ± 0.00058 | 0.031
KPD BONE | 0.953 ± 0.04 | 0.915 ± 0.055 | 0.96 ± 0.087 | 0.839 ± 0.093 | 0.5 ± 0.011 | 0.457 ± 0.035 | 0.445 ± 0.011 | 0.383 ± 0.026 | 1.06 ± 0.061 | 1.02 ± 0.043 | 1.12 ± 0.035 | 1.09 ± 0.076 | 1.08 ± 0.087 | 1.17 ± 0.021 | 1.02 ± 0.024 | 1.05 ± 0.047
LM7 BONE | 0.973 ± 0.062 | 0.9683 ± 0.0047 | 0.757 ± 0.023 | 0.499 ± 0.062 | 0.115 ± 0.0052 | 0.105 ± 0.0081 | 0.0943 ± 0.011 | 0.122 ± 0.013 | 1.061 ± 0.0066 | 0.974 ± 0.085 | 1.13 ± 0.015 | 1.17 ± 0.06 | 0.919 ± 0.033 | 0.885 ± 0.065 | 0.699 ± 0.042 | 0.64 ± 0.023
MCF7 BREAST | 0.932 ± 0.027 | 0.914 ± 0.025 | 0.861 ± 0.058 | 0.817 ± 0.022 | 0.466 ± 0.017 | 0.428 ± 0.027 | 0.357 ± 0.0083 | 0.221 ± 0.018 | 0.973 ± 0.011 | 0.989 ± 0.05 | 0.734 ± 0.048 | 0.587 ± 0.033 | 0.569 ± 0.011 | 0.588 ± 0.035 | 0.573 ± 0.039 | 0.572 ± 0.024
MDAMB134 BREAST | 0.97 ± 0.1 | 0.842 ± 0.025 | 0.751 ± 0.072 | 0.691 ± 0.082 | 0.728 ± 0.016 | 0.708 ± 0.05 | 0.69 ± 0.085 | 0.767 ± 0.091 | 0.929 ± 0.039 | 0.947 ± 0.04 | 0.899 ± 0.052 | 0.848 ± 0.027 | 1.12 ± 0.21 | 0.858 ± 0.073 | 0.75 ± 0.06 | 0.75 ± 0.011
MDAMB157 BREAST | 0.915 ± 0.076 | 0.872 ± 0.076 | 0.748 ± 0.084 | 0.465 ± 0.045 | 0.11 ± 0.026 | 0.0867 ± 0.013 | 0.0783 ± 0.015 | 0.12 ± 0.025 | 1.02 ± 0.12 | 0.908 ± 0.012 | 1.05 ± 0.023 | 1.02 ± 0.09 | 0.946 ± 0.01 | 0.947 ± 0.06 | 0.839 ± 0.044 | 0.857 ± 0.076
